Reference: US8324245B2, “Quinoline derivative and quinazoline derivative inhibiting self-phosphorylation of hepatocytus proliferator receptor, and medicinal composition containing the same” (Kyowa Hakko Kirin Co., Ltd., priority 2001, dated 2012)

Columns and labels:
[1] = biological target: T1, met (HGF receptor) in human gastric cancer cells MKN45 (Homo sapiens, UniProt P08581); experiment: Inhibitory activity against met-autophosphorylation using ELISA method (2), MKN45 cells, HGF-independent; assay type: cell-based
T1 construct: endogenous in cells; host or cells: MKN45 human gastric cancer cells
T1 sequence (P08581 25-1390): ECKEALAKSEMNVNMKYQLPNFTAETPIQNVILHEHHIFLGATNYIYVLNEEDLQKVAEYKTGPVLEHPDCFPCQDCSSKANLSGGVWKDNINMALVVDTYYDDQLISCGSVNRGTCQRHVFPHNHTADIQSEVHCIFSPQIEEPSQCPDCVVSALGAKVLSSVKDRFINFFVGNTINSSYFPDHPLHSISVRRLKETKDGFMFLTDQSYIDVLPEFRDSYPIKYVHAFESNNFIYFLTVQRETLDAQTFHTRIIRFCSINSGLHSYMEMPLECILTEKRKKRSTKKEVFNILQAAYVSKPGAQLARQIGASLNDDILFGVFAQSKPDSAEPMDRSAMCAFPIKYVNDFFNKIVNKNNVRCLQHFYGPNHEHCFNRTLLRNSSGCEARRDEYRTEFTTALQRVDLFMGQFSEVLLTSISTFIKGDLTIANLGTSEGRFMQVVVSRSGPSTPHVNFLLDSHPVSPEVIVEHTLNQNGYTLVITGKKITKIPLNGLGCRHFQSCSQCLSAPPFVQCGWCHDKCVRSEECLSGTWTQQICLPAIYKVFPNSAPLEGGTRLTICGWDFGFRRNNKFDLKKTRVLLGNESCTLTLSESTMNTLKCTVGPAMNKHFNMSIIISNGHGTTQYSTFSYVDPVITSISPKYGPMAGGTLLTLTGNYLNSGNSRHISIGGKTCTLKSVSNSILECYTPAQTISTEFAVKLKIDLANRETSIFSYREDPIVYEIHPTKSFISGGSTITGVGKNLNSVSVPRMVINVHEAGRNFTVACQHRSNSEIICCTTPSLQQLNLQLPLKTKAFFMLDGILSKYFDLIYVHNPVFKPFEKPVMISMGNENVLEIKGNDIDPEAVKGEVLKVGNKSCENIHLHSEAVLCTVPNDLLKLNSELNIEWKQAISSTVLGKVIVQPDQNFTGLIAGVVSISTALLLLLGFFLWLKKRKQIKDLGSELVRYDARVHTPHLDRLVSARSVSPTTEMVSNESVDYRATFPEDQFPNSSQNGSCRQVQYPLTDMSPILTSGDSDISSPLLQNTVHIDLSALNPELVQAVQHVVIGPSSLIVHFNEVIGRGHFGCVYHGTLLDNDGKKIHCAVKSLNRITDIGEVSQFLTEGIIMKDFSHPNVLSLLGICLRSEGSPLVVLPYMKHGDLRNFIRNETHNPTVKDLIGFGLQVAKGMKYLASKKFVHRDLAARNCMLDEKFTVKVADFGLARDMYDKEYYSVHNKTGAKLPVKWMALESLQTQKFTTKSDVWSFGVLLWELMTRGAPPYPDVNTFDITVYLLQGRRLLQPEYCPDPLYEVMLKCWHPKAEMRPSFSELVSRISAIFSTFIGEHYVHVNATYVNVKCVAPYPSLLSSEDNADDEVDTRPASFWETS
In short: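 Met autophosphorylation was read by sandwich ELISA: phosphotyrosine capture (PY20), anti-HGF receptor detection, peroxidase read-out at 450 nm. Lysates came from MKN45 gastric cancer cells kept in 0.1% FCS RPMI and treated 1 h at 37 °C with test compound, with no added HGF.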

[2] = test system: Human gastric cancer cells (MKN 45); experiment: Tumor growth inhibitory activity against various human tumor cells in nude mice: MKN 45; assay type: in vivo; settings: Mus musculus, MKN-45, po, 120 h, MKN45, Oral, 5 days; read-out: TGIR
Protocol: (§1) Human gastric cancer cells (MKN 45) (obtained from RIKEN), human brain tumor cells (U87MG) (obtained from ATCC), human pancreatic cancer cells (KP4) (obtained from RIKEN), human pancreatic cancer cells (SUIT-2) (obtained from National Kyushu Cancer Center), and human signet-ring type gastric cancer cells (NUGC-4) (obtained from RIKEN), or human lung cancer cells (LC6) (obtained from Central Laboratories for Experimental Animals) were transplanted into nude mice. […] The test compound suspended in 0.5% methylcellulose was orally administered once or twice a day for 5 days. Only 0.5% methylcellulose was administered to the control group in the manner as in the test groups. Alternatively, the test compound dissolved in physiological saline (with a 1 N aqueous hydrochloric acid solution added thereto) was intraveneously injected once a day for 5 days, and only physiological saline (with a 1 N aqueous hydrochloric acid solution added thereto) was administered to the control group in the same manner as in the test groups. The tumor growth inhibition rate (TGIR) was calculated as follows: The tumor growth inhibition rate (TGIR)=(1−TX/CX)×100 wherein CX represents the relative tumor volume at the 5th day for the control group when the tumor volume at the day of the start of the administration was presumed to be 1; and TX represents the relative tumor volume for test compound administration groups.

[3] = test system: human lung cancer cells (LC6); experiment: Tumor growth inhibitory activity against various human tumor cells in nude mice: LC6; assay type: in vivo; settings: LC6, Oral, 30 × 2 mg/kg × number of times, 5 days
Protocol: as §1

[4] = test system: Human brain tumor cells (U87MG); experiment: Tumor growth inhibitory activity against various human tumor cells in nude mice: U87MG; assay type: in vivo; settings: Oral, 30 × 2 mg/kg × number of times, 5 days
Protocol: as §1

[5] = test system: Human gastric cancer cells (MKN 45); experiment: Tumor growth inhibitory activity against human gastric cancer cells (MKN 45) in nude mice; assay type: in vivo; settings: oral, twice a day for 5 days
Protocol: Human gastric cancer cells (MKN 45) were transplanted into nude mice. […] The test compound suspended in 0.5% methylcellulose was orally administered twice a day for 5 days.
Only 0.5% methylcellulose was administered to the control group in the manner as in the test groups. The tumor growth inhibition rate (TGIR) was calculated as follows: The tumor growth inhibition rate (TGIR)=(1−TX/CX)×100 wherein CX represents the relative tumor volume at day X for the control group when the tumor volume at the day of the start of the administration was presumed to be 1; and TX represents the relative tumor volume for test compound administration groups.

[6] = biological target: T2, met (HGF receptor) in human epidermal cancer cells A431 (Homo sapiens, UniProt P08581); experiment: Inhibitory activity against met-autophosphorylation using ELISA method (1), HGF-stimulated A431 cells; assay type: cell-based; settings: HGF 50 ng/ml stimulation, read-out: IC50 (concentration necessary for inhibiting 50% of met phosphorylation)
T2 construct: endogenous in cells; host or cells: A431 human epidermal cancer cells
T2 sequence (P08581 25-1390): as above
Protocol: Human epidermal cancer cells A431 were cultured in an RPMI 1640 medium containing 10% fetal calf serum (purchased from GIBCO BRL) within a 5% carbon dioxide incubator until 50 to 90% confluent. Cells were cultured with RPMI medium containing 0.1% fetal calf serum in 96-well flat-bottom plate in an amount of 3×10^4 per well, and were incubated at 37° C. overnight. The medium was then replaced by a fresh RPMI medium containing 0.1% fetal calf serum. A solution of the test compound in dimethyl sulfoxide was added to each well, and the cells were incubated at 37° C. for additional one hr. A human recombinant hepatocyte growth factor (hereinafter abbreviated to “HGF”) was added to a final concentration of 50 ng/ml, and the stimulation of cells was carried out at 37° C. for 5 min. The medium was removed, the cells were washed with phosphate buffered saline (pH 7.4), and 50 μl of lysis buffer (20 mM HEPES (pH 7.4), 150 mM NaCl, 0.2% Triton X-100, 10% glycerol, 5 mM sodium orthovanadylate, 5 mM disodium ethylenediaminetetraacetate, and 2 mM Na4P2O7) was then added thereto. […]
Separately, phosphate buffered saline (50 μl, pH 7.4) containing 5 μg/ml of anti-phospho-tyrosine antibody (PY20; purchased from Transduction Laboratories) was added to a microplate for ELISA (Maxisorp; purchased from NUNC), followed by gentle agitation at 4° C. overnight to coat the surface of the wells with the antibody. […] After washing, the whole quantity of the cell extract was transferred to the wells, and the plate was then allowed to incubate at 4° C. overnight. […] After a suitable level of color development, a reaction termination solution was added to stop the reaction, and the absorbance at 450 nm was measured with a microplate reader. The met-phosphorylation inhibitory activity for each well was determined by presuming the absorbance with the addition of HGF and the vehicle to compounds to be 0% met-phosphorylation inhibitory activity and the absorbance with the addition of the vehicle to compounds and without HGF to be 100% met phosphorylation inhibitory activity. […]

| Compound | IC50 [1] | inhibition in vivo at 30 mg/kg [2] | other results |
| --- | --- | --- | --- |
| COc1cc2c(Oc3ccc(NC(=S)NC(=O)Cc4cccc(F)c4)cc3Cl)ccnc2cc1OCCCN1CCOCC1 [Example 299, 1-{3-Chloro-4-[6-methoxy-7-(3-morpholin-yl-propoxy)-quinolin-4-yloxy]-phenyl}-3-[2-(3-fluoro-phenyl)-acetyl]-thiourea] | 43.5 nM |  | inhibition in vivo at 25 mg/kg [2]: 14% |
| COc1cc2c(Oc3ccc(NC(=S)NC(=O)Cc4ccccc4)cc3F)ccnc2cc1OCC(O)CN1CCCC1 (stereo not shown) [Example 332, 1-{3-Fluoro-4-[7-(2-hydroxy-3-pyrrolidin-1-yl-propoxy)-6-methoxy-quinolin-4-yloxy]-phenyl}-3-(2-phenyl-acetyl)-thiourea] | 14.2 nM | 14% |  |
| COc1cc2c(Oc3ccc(NC(=O)NC(=O)Cc4ccc(F)cc4)c(F)c3)ccnc2cc1OCCCN1CCOCC1 [Example 286, 1-{2-Fluoro-4-[6-methoxy-7-(3-morpholin-4-yl-propoxy)-quinolin-4-yloxy]-phenyl}-3-[2-(4-fluoro-phenyl)-acetyl]-urea] | 29.3 nM | 64% | TGIR [4]: 66%; TGIR [3]: 37% |
| COc1cc2c(Oc3ccc(NC(=S)NC(=O)Cc4cccc(Cl)c4)cc3F)ccnc2cc1OCC(O)CN1CCOCC1 (stereo not shown) [Example 320, 1-[2-(3-Chloro-phenyl)-acetyl]-3-{3-fluoro-4-[7-(2-hydroxy-3-morpholin-4-yl-propoxy)-6-methoxy-quinolin-4-yloxy]-phenyl}-thiourea] | 14 nM | 20% |  |
| COc1cc2c(Oc3ccc(NC(=S)NC(=O)Cc4cccc(C)c4)cc3F)ccnc2cc1OCC(O)CN1CCOCC1 (stereo not shown) [Example 334] | 22.7 nM | 65% |  |
| COc1cc2c(Oc3ccc(NC(=S)NC(=O)Cc4ccccc4)cc3F)ccnc2cc1OCC(O)CN1CCOCC1 (stereo not shown) [Example 312, 1-{3-Fluoro-4-[7-(2-hydroxy-3-morpholin-4-yl-propoxy)-6-methoxy-quinolin-4-yloxy]-phenyl}-3-phenylacetyl-thiourea] | 19.1 nM | 75% |  |
| COc1cc2c(Oc3ccc(NC(=S)NC(=O)Cc4ccccc4)cc3F)ccnc2cc1OCC(O)CN1CCCCC1 (stereo not shown) [Example 331] | 22 nM | 40% |  |
| COc1cc2c(Oc3ccc(NC(=S)NC(=O)Cc4ccccc4F)cc3F)ccnc2cc1OCC(O)CN1CCOCC1 (stereo not shown) [Example 315] | 21 nM | 36% |  |
| COc1cc2c(Oc3ccc(NC(=O)NC(=O)Cc4ccccc4)cc3F)ccnc2cc1OCCCN1CCOCC1 [Example 11, 1-{3-fluoro-4-[6-methoxy-7-(3-morpholin-4-yl-propoxy)quinolin-4-yloxy]phenyl}-3-phenylacetylurea] | 20.2 nM | 63% | IC50 [6]: 58.1 nM; TGIR (tumor growth inhibition rate) ([5]; dose 10 mg/kg/time): 23%; TGIR (tumor growth inhibition rate) ([5]; dose 30 mg/kg/time): 52%; TGIR [4]: 62%; TGIR [3]: 26% |
| COc1cc2c(Oc3ccc(NC(=S)NC(=O)Cc4ccccc4Cl)cc3F)ccnc2cc1OCC(O)CN1CCOCC1 (stereo not shown) [Example 314, 1-[2-(2-Chloro-phenyl)-acetyl]-3-{3-fluoro-4-[7-(2-hydroxy-3-morpholin-4-yl-propoxy)-6-methoxy-quinolin-4-yloxy]-phenyl}-thiourea] | 23.2 nM | 38% |  |
| COc1cc2c(Oc3ccc(NC(=S)NC(=O)Cc4ccccc4C)cc3F)ccnc2cc1OCC(O)CN1CCOCC1 (stereo not shown) [Example 333] | 21.1 nM | 75% |  |

Further lines, with some results ahead:

| IC50 [1] | Compound | inhibition in vivo at 30 mg/kg [2] | other results |
| --- | --- | --- | --- |
| 13.1 nM | COc1cc2c(Oc3ccc(NC(=S)NC(=O)Cc4ccc(Cl)cc4)cc3F)ccnc2cc1OCC(O)CN1CCOCC1 (stereo not shown) [Example 326, 1-[2-(4-Chloro-phenyl)-acetyl]-3-{3-fluoro-4-[7-(2-hydroxy-3-morpholin-4-yl-propoxy)-6-methoxy-quinolin-4-yloxy]-phenyl}-thiourea] | 17% |  |
| 22.6 nM | COc1cc2c(Oc3ccc(NC(=S)NC(=O)Cc4ccccc4F)cc3F)ccnc2cc1OCCCN1CCOCC1 [Example 288, 1-{3-Fluoro-4-[6-methoxy-7-(3-morpholin-4-yl-propoxy)-quinolin-4-yloxy]-phenyl}-3-[2-(2-fluoro-phenyl)-acetyl]-thiourea] | 64% |  |
| 75.3 nM | COc1cc2c(Oc3ccc(NC(=S)NC(=O)Cc4ccccc4Cl)cc3F)ccnc2cc1OCCCN1CCOCC1 [Example 285, 1-[2-(2-Chloro-phenyl)-acetyl]-3-{3-fluoro-4-[6-methoxy-7-(3-morpholin-4-yl-propoxy)-quinolin-4-yloxy]-phenyl}-thiourea] | 66% | TGIR [3]: 48% |
| 16.6 nM | COc1cc2c(Oc3ccc(NC(=S)NC(=O)Cc4ccc(F)cc4)cc3F)ccnc2cc1OCCN1CCC(CO)CC1 [Example 282, 1-(3-Fluoro-4-{7-[2-(4-hydroxymethyl-piperidin-1-yl)ethoxy]-6-methoxy-quinolin-4-yloxy}-phenyl)-3-[2-(4-fluoro-phenyl)-acetyl]-thiourea] | 13% |  |
| 22.8 nM | COc1cc2c(Oc3ccc(NC(=S)NC(=O)Cc4ccccc4)cc3F)ccnc2cc1OCCCN1CCOCC1 [Example 268, N-{3-fluoro-4-[6-methoxy-7-(3-morpholin-4-yl-propoxy)quinolin-4-yloxy]phenyl}-N′-phenylacetyl-thiourea] |  | TGIR (tumor growth inhibition rate) ([5]; dose 30 mg/kg/time): 81%; TGIR [4]: 74%; TGIR [3]: 35% |
| 20.4 nM | COc1cc2c(Oc3ccc(NC(=S)NC(=O)Cc4ccc(F)cc4)cc3F)ccnc2cc1OCCN1CCOCC1 [Example 277, 1-{3-Fluoro-4-[6-methoxy-7-(2-morpholin-4-yl-ethoxy)-quinolin-4-yloxy]-phenyl}-3-[2-(4-fluorophenyl)-acetyl]-thiourea] | 17% |  |
| < 10 nM | COc1cc2c(Oc3ccc(NC(=S)NC(=O)Cc4cccc(F)c4)cc3F)ccnc2cc1OCC(O)CN1CCOCC1 (stereo not shown) [Example 323, 1-{3-Fluoro-4-[7-(2-hydroxy-3-morpholin-4-yl-propoxy)-6-methoxy-quinolin-4-yloxy]-phenyl}-3-[2-(3-fluoro-phenyl)-acetyl]-thiourea] | 34% |  |
